# Data published in article PMC11662004 (Communications Chemistry, 2024).
# Values joined by “and” are separate entries in the source; they are usually repeats but may differ in a detail not shown here. Equal values may be shown once. Read-outs that look alike come from different tables or passages of the source.
# Key:
# NgTet1 = target: T1, NgTet1 (Naegleria gruberi, UniProt D2W6T1); type: biochemical; settings: for 2OG Concentration / Succinate Concentration: 20 μM 5HC DNA
# T1 construct: His6-tagged full-length Naegleria gruberi NgTet1 (321 a. a.) protein with a thrombin cleavage site; made in house; host or cells: E. coli BL21(DE3)
# T1 sequence (D2W6T1 1-321): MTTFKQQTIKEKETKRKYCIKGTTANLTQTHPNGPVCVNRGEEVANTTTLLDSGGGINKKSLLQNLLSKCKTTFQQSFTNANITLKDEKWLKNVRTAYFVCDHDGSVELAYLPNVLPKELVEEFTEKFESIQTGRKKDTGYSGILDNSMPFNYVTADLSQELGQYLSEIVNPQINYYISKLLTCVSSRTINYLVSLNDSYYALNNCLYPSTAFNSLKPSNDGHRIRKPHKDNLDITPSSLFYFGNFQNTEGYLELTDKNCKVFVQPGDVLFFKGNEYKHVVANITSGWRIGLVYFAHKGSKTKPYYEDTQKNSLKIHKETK
# Protocol: Double-stranded 12 bp DNA oligomers were added at a final concentration of 20 µM. […]
# Double-stranded DNA oligomers were added at a final concentration of 20 µM. […]
# (§1) All ^1H NMR spectra were recorded at 25 °C using D2O as a reference for internal deuterium lock on a Bruker Avance III 700 MHz equipped with an inverse TCI cryoprobe in 3 or 5 mm diameter tubes with a total sample volume of 160 or 565 μL, respectively. The water signal was reduced using Perfect Echo excitation sculpting suppression. Chemical shifts are reported in ppm relative to D2O (δH = 4.70 ppm).
# Spectrometer settings were determined using a control sample containing all reaction components excluding enzyme. TET enzyme was added to an identical sample, and the resulting assay mixture was transferred to an NMR tube before deposition into the instrument. […] Spectrum recordings were carried out consecutively without delay. Data were processed using automated routines on MestReNova v14.2.0; signals of interest were integrated with absolute intensity scaling. ^1H NMR time courses reported in figures are representative results from two or three independent replicates.
# TET2CDΔLCI = test: Continuous reaction monitoring (1H NMR), 2OG decarboxylation; type: biochemical, human; settings: Supp Fig 10 a
# Protocol: Double-stranded DNA oligomers were added at a final concentration of 20 µM. Data plotted from two independent replicates (n = 2). Initial rates reported as the mean of two independent replicates (n = 2). TEXT PRINTED IN THE PICTURE: (c) No DNA: V0 (μM min^−1) NgTet1: 0.36; V0 (μM min^−1) TET2: 1.28; Relative V0 NgTet1: 1; Relative V0 TET2: 1 | (c) ^5HC DNA: V0 (μM min^−1) NgTet1: 1.30; V0 (μM min^−1) TET2: 6.34; Relative V0 NgTet1: 3.6; Relative V0 TET2: 5.0 | (c) AT DNA: V0 (μM min^−1) NgTet1: 0.82; V0 (μM min^−1) TET2: 5.78; Relative V0 NgTet1: 2.3; Relative V0 TET2: 4.5 | (c) ^5mC DNA: V0 (μM min^−1) NgTet1: 1.52; V0 (μM min^−1) TET2: 6.79; Relative V0 NgTet1: 4.2; Relative V0 TET2: 5.3
# as §1
# Spectrometer settings were determined using a control sample containing all reaction components excluding enzyme. TET enzyme was added to an identical sample, and the resulting assay mixture was transferred to an NMR tube before deposition into the instrument. […] Data acquisition was started following a brief spectrometer setting optimisation (up to 200 s delay between enzyme addition and data acquisition); 8–32 scans were accumulated for a single spectrum, corresponding to 65–179 s of acquisition time. Spectrum recordings were carried out consecutively without delay. Data were processed using automated routines on MestReNova v14.2.0; signals of interest were integrated with absolute intensity scaling. ^1H NMR time courses reported in figures are representative results from two or three independent replicates.
substance,measurement,setting,value
"5HC DNA: non-methylated DNA of the same sequence, 5'-ACC ACC GGT GGT-3', non-substrate (DNA ACCACCGGTGGT; DNA, backbone not given here)",2OG Concentration,NgTet1; time 6.31667 min,88.5781 µM
same,Succinate Concentration,NgTet1; time 6.31667 min,11.4219 µM
same,2OG Concentration,NgTet1; time 9.38333 min,79.2717 µM
same,Succinate Concentration,NgTet1; time 9.38333 min,20.7283 µM
same,2OG Concentration,NgTet1; time 12.45 min,72.6874 µM
same,Succinate Concentration,NgTet1; time 12.45 min,27.3126 µM
same,2OG Concentration,NgTet1; time 15.5167 min,67.5286 µM
same,Succinate Concentration,NgTet1; time 15.5167 min,32.4714 µM
same,2OG Concentration,NgTet1; time 18.6 min,63.1853 µM
same,Succinate Concentration,NgTet1; time 18.6 min,36.8147 µM
same,V0 NgTet1,"NgTet1; 20 µM DNA, 100 μM 2OG, 5 μM NgTet1",1.30 µM/min
same,2-OG turnover rate,"NgTet1; 2-OG 50 uM, 20 µM DNA",1.2756 µM/min and 1.3302 µM/min
same,2-OG turnover rate,"NgTet1; 2-OG 100 uM, 20 µM DNA",2.0544 µM/min and 2.2614 µM/min
same,2-OG turnover rate,"NgTet1; 2-OG 200 uM, 20 µM DNA",3.7602 µM/min and 3.5166 µM/min
same,2-OG turnover rate,"NgTet1; 2-OG 400 uM, 20 µM DNA",4.4538 µM/min and 4.2732 µM/min
same,2-OG turnover rate,"NgTet1; 2-OG 700 uM, 20 µM DNA",4.9836 µM/min and 5.0838 µM/min
same,2-OG turnover rate,"NgTet1; 2-OG 1000 uM, 20 µM DNA",5.3268 µM/min and 5.3442 µM/min
same,2-OG turnover rate,"NgTet1; 2-OG 2000 uM, 20 µM DNA",5.8116 µM/min and 5.7954 µM/min
same,2-OG turnover rate,"NgTet1; 2-OG 4000 uM, 20 µM DNA",6.75 µM/min and 6.036 µM/min
same,succinate,"NgTet1; n = 1, time (min) 5HC DNA 5.9, AT DNA 5.81667, 5mC DNA 5.78333",7.407 µM
same,succinate,"NgTet1; n = 1, time (min) 5HC DNA 8.98333, AT DNA 8.9, 5mC DNA 8.86667",12.5672 µM
same,succinate,"NgTet1; n = 1, time (min) 5HC DNA 12.0667, AT DNA 11.9833, 5mC DNA 11.95",16.4606 µM
same,succinate,"NgTet1; n = 1, time (min) 5HC DNA 15.1333, AT DNA 15.0667, 5mC DNA 15.0333",19.1176 µM
same,succinate,"NgTet1; n = 1, time (min) 5HC DNA 18.2167, AT DNA 18.1333, 5mC DNA 18.1167",21.6247 µM
same,succinate,"NgTet1; n = 1, time (min) 5HC DNA 21.3667, AT DNA 21.2333, 5mC DNA 21.2",24.6175 µM
same,succinate,"NgTet1; n = 1, time (min) 5HC DNA 24.45, AT DNA 24.3167, 5mC DNA 24.2833",26.0885 µM
same,succinate,"NgTet1; n = 1, time (min) 5HC DNA 27.5333, AT DNA 27.3833, 5mC DNA 27.3667",28.2137 µM
same,succinate,"NgTet1; n = 1, time (min) 5HC DNA 30.6, AT DNA 30.4667, 5mC DNA 30.45",29.4575 µM
same,succinate,"NgTet1; n = 1, time (min) 5HC DNA 33.6833, AT DNA 33.55, 5mC DNA 33.5333",31.2095 µM
same,succinate,"NgTet1; n = 1, time (min) 5HC DNA 36.7667, AT DNA 36.6333, 5mC DNA 36.6167",32.5108 µM
same,succinate,"NgTet1; n = 1, time (min) 5HC DNA 39.85, AT DNA 39.7167, 5mC DNA 39.7",33.8071 µM
same,succinate,"NgTet1; n = 1, time (min) 5HC DNA 42.9333, AT DNA 42.8, 5mC DNA 42.7833",34.7457 µM
same,succinate,"NgTet1; n = 1, time (min) 5HC DNA 46.0167, AT DNA 45.8833, 5mC DNA 45.8667",35.7895 µM
same,succinate,"NgTet1; n = 1, time (min) 5HC DNA 49.0833, AT DNA 48.9667, 5mC DNA 48.95",37.2861 µM
same,succinate,"NgTet1; n = 1, time (min) 5HC DNA 52.1667, AT DNA 52.05, 5mC DNA 52.0333",38.1768 µM
same,succinate,"NgTet1; n = 1, time (min) 5HC DNA 55.25, AT DNA 55.1167, 5mC DNA 55.1167",38.5101 µM
same,succinate,"NgTet1; n = 1, time (min) 5HC DNA 58.3333, AT DNA 58.2, 5mC DNA 58.2",39.4428 µM
same,succinate,"NgTet1; n = 1, time (min) 5HC DNA 61.4, AT DNA 61.2833, 5mC DNA 61.2833",40.1071 µM
same,succinate,"NgTet1; n = 1, time (min) 5HC DNA 64.4833, AT DNA 64.3833, 5mC DNA 64.35",40.323 µM
same,succinate,"NgTet1; n = 2, time (min) 5HC DNA 5.81667, AT DNA 5.61667, 5mC DNA 6.08333",6.9553 µM
same,succinate,"NgTet1; n = 2, time (min) 5HC DNA 8.88333, AT DNA 8.7, 5mC DNA 9.16667",12.0978 µM
same,succinate,"NgTet1; n = 2, time (min) 5HC DNA 12.0333, AT DNA 11.7833, 5mC DNA 12.25",15.5692 µM
same,succinate,"NgTet1; n = 2, time (min) 5HC DNA 15.1167, AT DNA 14.8667, 5mC DNA 15.3167",18.665 µM
same,succinate,"NgTet1; n = 2, time (min) 5HC DNA 18.1833, AT DNA 17.9333, 5mC DNA 18.4",21.5442 µM
same,succinate,"NgTet1; n = 2, time (min) 5HC DNA 21.2667, AT DNA 21.0167, 5mC DNA 21.4833",23.7344 µM
same,succinate,"NgTet1; n = 2, time (min) 5HC DNA 24.35, AT DNA 24.1, 5mC DNA 24.5667",25.3146 µM
same,succinate,"NgTet1; n = 2, time (min) 5HC DNA 27.4333, AT DNA 27.1833, 5mC DNA 27.65",27.7156 µM
same,succinate,"NgTet1; n = 2, time (min) 5HC DNA 30.5167, AT DNA 30.2667, 5mC DNA 30.7333",29.219 µM
same,succinate,"NgTet1; n = 2, time (min) 5HC DNA 33.6, AT DNA 33.35, 5mC DNA 33.8167",30.6366 µM
same,succinate,"NgTet1; n = 2, time (min) 5HC DNA 36.6833, AT DNA 36.4333, 5mC DNA 36.9",31.7592 µM
same,succinate,"NgTet1; n = 2, time (min) 5HC DNA 39.7667, AT DNA 39.5167, 5mC DNA 39.9833",33.6089 µM
same,succinate,"NgTet1; n = 2, time (min) 5HC DNA 42.8333, AT DNA 42.6, 5mC DNA 43.0667",34.5619 µM
same,succinate,"NgTet1; n = 2, time (min) 5HC DNA 45.9167, AT DNA 45.6833, 5mC DNA 46.15",35.6503 µM
same,succinate,"NgTet1; n = 2, time (min) 5HC DNA 49, AT DNA 48.7667, 5mC DNA 49.2333",37.1492 µM
same,succinate,"NgTet1; n = 2, time (min) 5HC DNA 52.0833, AT DNA 51.85, 5mC DNA 52.3167",37.4628 µM
same,succinate,"NgTet1; n = 2, time (min) 5HC DNA 55.1667, AT DNA 54.9333, 5mC DNA 55.4",38.3288 µM
same,succinate,"NgTet1; n = 2, time (min) 5HC DNA 58.25, AT DNA 58.0167, 5mC DNA 58.4833",38.622 µM
same,succinate,"NgTet1; n = 2, time (min) 5HC DNA 61.3333, AT DNA 61.1, 5mC DNA 61.5667",40.1844 µM
same,succinate,"NgTet1; n = 2, time (min) 5HC DNA 64.4167, AT DNA 64.1667, 5mC DNA 64.65",40.2655 µM
same,Relative V0 NgTet1,NgTet1; relative to reactions without DNA,3.6
same,Vmax^app,NgTet1; with 20 µM 5HC DNA,6.47 µM/min
same,kcat^app,NgTet1; with 20 µM 5HC DNA,0.0217 s⁻¹
same,succinate,TET2CDΔLCI; Time 0 min,2.2 µM
same,succinate,TET2CDΔLCI; Time 2.5 min,3.9 µM
same,succinate,TET2CDΔLCI; Time 5 min,6.5 µM
same,succinate,TET2CDΔLCI; Time 7.5 min,9.5 µM
same,succinate,TET2CDΔLCI; Time 10 min,12.4 µM
same,succinate,TET2CDΔLCI; Time 15 min,17.3 µM
same,succinate,TET2CDΔLCI; Time 20 min,21.5 µM
